# In US10952992B2, “Methods of treating intraocular pressure with activators of Tie-2” (Aerpio Pharmaceuticals, Inc., priority 2015, dated 2021):
# Counter-ions that a name gives are not always drawn.
# Assays:
# eye = experiment: Example 3 ophthalmic examination, modified McDonald-Shadduck scoring (tolerability); format: in vivo, New Zealand White rabbits
# Procedure: Prior to placement on study, each animal underwent an ophthalmic examination (slitlamp biomicroscopy and indirect ophthalmoscopy). Ocular findings were scored according to a modified McDonald-Shadduck Scoring System and recorded on a standardized data sheet. The acceptance criteria for placement on study were scores of “0” for all variables.
# Ophthalmic examination (slit-lamp biomicroscopy only) was performed at baseline (prior to the start of dosing) and on Days 1, 4, and 8. Ocular findings were scored according to a modified McDonald-Shadduck Scoring System. A slit lamp was used to observe conjunctival discharge, […], […], the cornea, the surface area of cornea involvement, pannus, pupillary response, aqueous flare, cellular flare, iris involvement, and the lens. An indirect ophthalmoscope was used to observe the vitreous, vitral hemorrhage, retinal detachment, retinal hemorrhage, and choroidal/retinal inflammation. Animals were prepared for observation by using a solution (atropine, tropicaminde, or phenylephrine) to dilate the pupils.
# Conjunctival discharge was defined as a whitish gray precipitate from the eye. Scoring was as follows. • 0=Normal, no discharge. • 1=Discharge above normal and present on the inner portion of the eye but not on the lids or hairs of the eyelids. • 2=Discharge is abundant, easily observed and has collected on the lids and hairs of the eyelids. • 3=Discharge has been flowing over the eyelids so as to wet the hairs substantially on the skin around the eye.
# Conjunctival congestion causes the blood vessels of the eye to become enlarged. Scoring was as follows. • 0=Normal, may appear blanched to reddish pink without perilimbal injection (except at the 12:00 and 6:00 positions) with vessels of the palpebral and bulbar conjunctiva easily observed. • 1=A flushed, reddish color predominantly confined to the palpebral conjunctiva with some perilimbal injection but primarily confined to the lower and upper parts of the eye from the 4:00 to the 7:00 and 11:00 to 1:00 positions. • 2=Bright red color of the palpebral conjunctiva with accompanying perilimbal injection covering at least 75% of the circumference of the perilimbal region. • 3=Dark, beefy red color with congestion of both the bulbar and palpebral conjunctiva along with pronounced perilimbal injection and the presence of petechial on the conjunctiva. The petechial generally predominates along the nictitating membrane and upper palprebal conjunctiva.
# Conjunctival swelling, defined as swelling of the conjunctiva, was scored as follows. • 0=Normal or no swelling of the conjunctival tissue. • 1=Swelling above normal without eversion of the eyelids (easily discerned by noting upper and lower eyelids are positioned as in the normal eye); swelling generally starts in the lower cul-de-sac near the inner canthus. • 2=Swelling with misalignment of the normal approximation of the lower and upper eyelids; primarily confined to the upper eyelid so that in the initial stages, the misapproximation of the eyelids begins by partial eversion of the upper eyelid. In this state the swelling is confined generally to the upper eyelid with some swelling in the lower cul-de-sac. • 3=Swelling definite with partial eversion of the upper and lower eyelids essentially equivalent. […] It is difficult to retract the lids and observe the perilimbal region.
# Iris involvement was observed by checking the iris for hyperemia of the blood vessels. Scoring was as follows. • 0=Normal iris without any hyperemia of the blood vessels. • 1=Some loss of transparency. Only the epithelium and/or the anterior half of the stroma are involved. The underlying structures are clearly visible although some cloudiness may be readily apparent. • 2=Involvement of the entire thickness of the stroma. […]
# [1] = Example 3 general health observations; format: in vivo, New Zealand White rabbits; settings: Example 3, 7 days topical or subcutaneous dosing
# Procedure: Animals were observed within their cages once daily throughout the study period. […] General health observations were recorded daily beginning on Day 1 and continuing throughout the course of the study.
# [2] = tested on: intraocular pressure in patients with diabetic macular edema; experiment: Change in intraocular pressure from baseline, Compound 1 BID for 28 days (FIG. 1); format: in vivo, human; settings: doses greater than 15 mg BID, 28 Day EOT
# Procedure: The difference in IOP was determined at the end of the trial, which was 28 days after treatment began (28 Day EOT). Changes in IOP were determined both in the study eye and the fellow eye.
# [3] = In vitro diffusion across rabbit cornea and sclera in Franz cell; format: in vitro ADME; settings: 1.5% of the sodium salt with 5% HPβCD in 50:50 D5W:sterile water
# [4] = Day 1, Group 2 (0.45 mg/eye topical BID), N=5
diffusion across rabbit cornea and sclera in Franz cell [3],SMILES,animals with mild conjunctival congestion (scores=1) (eye; [4]),animals with mild conjunctival swelling (eye; [4]),"animals with mild conjunctival congestion (scores=1) (eye; Day 1, Group 3 (1.2 mg/eye topical BID), N=5)","animals with mild conjunctival congestion (scores=1) (eye; Day 1, Group 4 (1.2 mg/eye topical QD), N=5)","animals with mild conjunctival congestion (scores=1) (eye; Day 1, Group 5 (10 mg/kg SC BID), N=5)","animals with mild conjunctival congestion (scores=1) (eye; Day 4, Group 2 (0.45 mg/eye topical BID), N=5)","animals with mild conjunctival congestion (scores=1) (eye; Day 4, Group 3 (1.2 mg/eye topical BID), N=5)","animals with mild conjunctival congestion (scores=1) (eye; Day 4, Group 4 (1.2 mg/eye topical QD), N=5)","animals with mild conjunctival congestion (scores=1) (eye; Day 4, Group 5 (10 mg/kg SC BID), N=5)","ocular anomalies (eye; Day 8, all groups)",relation of mild conjunctival congestion to test article (eye; Example 3),adverse effects on general health [1],change in IOP relative to pre-treatment baseline [2]
,COC(=O)N[C@@H](Cc1ccccc1)C(=O)N[C@@H](Cc1ccc(NS(=O)(=O)O)cc1)c1csc(-c2cccs2)n1 [Compound 1 sodium salt],five,one,two,one,three,two,two,one,none,No ocular anomalies,unrelated to the test article,No adverse effects,
substantial diffusion,COC(=O)N[C@@H](Cc1ccccc1)C(=O)N[C@@H](Cc1ccc(NS(=O)(=O)O)cc1)c1csc(-c2cccs2)n1 [Compound 1],,,,,,,,,,,,,decreased IOP
